The text below walks through data of US20260048047A1, “SMALL-MOLECULE ACTIVATORS OF MYCOBACTERIUM TUBERCULOSIS ADENYLYL CYCLASE” (priority 2022, published 2026).

This experiment deals with M. tuberculosis. The experiment can be described thus: Extracellular activity against M. tuberculosis in cholesterol media (Alamar Blue reduction assay). Type of experiment: cell-based, Mycobacterium tuberculosis. The conditions noted are these: Mycobacterium tuberculosis, 240 h, 7H12-Cholesterol media, 10 days; read-out: Cholesterol broth: alamar blue--EC50. On the technique in general: Resazurin is reduced to fluorescent resorufin, in cell work by metabolically active cells.

The term EC50 denotes the concentration giving half of the maximal effect. Regarding `Cc1nonc1CC(=O)N1CCC(c2nc(C3CCC(F)(F)C3)no2)CC1` (stereo not shown) [Compound 109, 1-(4-(3-(3,3-difluorocyclopentyl)-1,2,4-oxadiazol-5-yl)piperidin-1-yl)-2-(4-methyl-1,2,5-oxadiazol-3-yl)ethan-1-one], the EC50 is 3250 nM.

For `Cc1nonc1CC(=O)N1CCC(c2nc(C3CCC(F)(F)CC3)no2)CC1` [Compound 110, 1-(4-(3-(4,4-difluorocyclohexyl)-1,2,4-oxadiazol-5-yl)piperidin-1-yl)-2-(4-methyl-1,2,5-oxadiazol-3-yl)ethan-1-one], the EC50 turned out to be 969 nM.

On to `Cc1nonc1CC(=O)N1CCC(O)(c2nc(C3CCC(F)(F)CC3)no2)CC1` [Compound 111, 1-(4-(3-(4,4-difluorocyclohexyl)-1,2,4-oxadiazol-5-yl)-4-hydroxypiperidin-1-yl)-2-(4-methyl-1,2,5-oxadiazol-3-yl)ethan-1-one], for which the EC50 was > 10000 nM.

Consider `Cc1nonc1CC(=O)N1CCC(c2nc(C3CCCC(F)(F)C3)no2)CC1` (stereo not shown) [Compound 112, 1-(4-(3-(3,3-difluorocyclohexyl)-1,2,4-oxadiazol-5-yl)piperidin-1-yl)-2-(4-methyl-1,2,5-oxadiazol-3-yl)ethan-1-one], for which the 50% effective concentration (EC50) stood at 2670 nM.

Consider `Cc1nonc1CC(=O)N1CCC(c2nc([C@@H]3CC[C@H](F)C3)no2)CC1` [Compound 113, 1-(4-(3-((1R,3S)-3-fluorocyclopentyl)-1,2,4-oxadiazol-5-yl)piperidin-1-yl)-2-(4-methyl-1,2,5-oxadiazol-3-yl)ethan-1-one], for which the EC50 was > 25000 nM.

As to `Cc1nonc1CC(=O)N1CCC(c2nc([C@@H]3CC[C@@H](F)C3)no2)CC1` [Compound 114, 1-(4-(3-((1R,3R)-3-fluorocyclopentyl)-1,2,4-oxadiazol-5-yl)piperidin-1-yl)-2-(4-methyl-1,2,5-oxadiazol-3-yl)ethan-1-one], the EC50 was determined as 7040 nM.

Take `Cc1nonc1CC(=O)N1CCC(c2nc(C3CCC(F)CC3)no2)CC1` (stereo not shown) [Compound 115, 1-(4-(3-(4-fluorocyclohexyl)-1,2,4-oxadiazol-5-yl)piperidin-1-yl)-2-(4-methyl-1,2,5-oxadiazol-3-yl)ethan-1-one]: the EC50 was > 25000 nM.

For `Cc1nonc1CC(=O)N1CCC(c2noc(C34CC(F)(C3)C4)n2)CC1` [Compound 116, 1-(4-(5-(3-fluorobicyclo[1.1.1]pentan-1-yl)-1,2,4-oxadiazol-3-yl)piperidin-1-yl)-2-(4-methyl-1,2,5-oxadiazol-3-yl)ethan-1-one], the EC50 was 9230 nM.

Take `Cc1nonc1CC(=O)N1CCC(c2nc(-c3ccc(C(F)(F)F)c(F)c3)no2)CC1` [Compound 117]: the EC50 was 278 nM.

As for `Cc1nonc1CC(=O)N1CCC(c2nc(-c3ccc(Cl)c(F)c3)no2)CC1` [Compound 118, 1-(4-(3-(4-chloro-3-fluorophenyl)-1,2,4-oxadiazol-5-yl)piperidin-1-yl)-2-(4-methyl-1,2,5-oxadiazol-3-yl)ethan-1-one], the EC50 stood at 80.5 nM.

In the case of `Cc1nonc1CC(=O)N1CCC(c2nc(-c3cc(F)cc(Cl)c3)no2)CC1` [Compound 119, 1-(4-(3-(3-chloro-5-fluorophenyl)-1,2,4-oxadiazol-5-yl)piperidin-1-yl)-2-(4-methyl-1,2,5-oxadiazol-3-yl)ethan-1-one], the EC50 amounted to 470 nM.

Turning to `Cc1nonc1CC(=O)N1CCC(c2nc(-c3ccc(Cl)cc3F)no2)CC1` [Compound 120, 1-(4-(3-(4-chloro-2-fluorophenyl)-1,2,4-oxadiazol-5-yl)piperidin-1-yl)-2-(4-methyl-1,2,5-oxadiazol-3-yl)ethan-1-one], the EC50 amounted to 370 nM.

As to `Cc1nonc1CC(=O)N1CCC(c2nc(-c3ccc(F)cc3Cl)no2)CC1` [Compound 121, 1-(4-(3-(2-chloro-4-fluorophenyl)-1,2,4-oxadiazol-5-yl)piperidin-1-yl)-2-(4-methyl-1,2,5-oxadiazol-3-yl)ethan-1-one], the half-maximal effective concentration (EC50) turned out to be 380 nM.
